For orientation: IC50 means the concentration at which inhibition is half-maximal.

Assay [1] has as its target T1, Short transient receptor potential channel 5 (Homo sapiens, UniProt Q9UL62).
T1 sequence (Q9UL62 whole entry): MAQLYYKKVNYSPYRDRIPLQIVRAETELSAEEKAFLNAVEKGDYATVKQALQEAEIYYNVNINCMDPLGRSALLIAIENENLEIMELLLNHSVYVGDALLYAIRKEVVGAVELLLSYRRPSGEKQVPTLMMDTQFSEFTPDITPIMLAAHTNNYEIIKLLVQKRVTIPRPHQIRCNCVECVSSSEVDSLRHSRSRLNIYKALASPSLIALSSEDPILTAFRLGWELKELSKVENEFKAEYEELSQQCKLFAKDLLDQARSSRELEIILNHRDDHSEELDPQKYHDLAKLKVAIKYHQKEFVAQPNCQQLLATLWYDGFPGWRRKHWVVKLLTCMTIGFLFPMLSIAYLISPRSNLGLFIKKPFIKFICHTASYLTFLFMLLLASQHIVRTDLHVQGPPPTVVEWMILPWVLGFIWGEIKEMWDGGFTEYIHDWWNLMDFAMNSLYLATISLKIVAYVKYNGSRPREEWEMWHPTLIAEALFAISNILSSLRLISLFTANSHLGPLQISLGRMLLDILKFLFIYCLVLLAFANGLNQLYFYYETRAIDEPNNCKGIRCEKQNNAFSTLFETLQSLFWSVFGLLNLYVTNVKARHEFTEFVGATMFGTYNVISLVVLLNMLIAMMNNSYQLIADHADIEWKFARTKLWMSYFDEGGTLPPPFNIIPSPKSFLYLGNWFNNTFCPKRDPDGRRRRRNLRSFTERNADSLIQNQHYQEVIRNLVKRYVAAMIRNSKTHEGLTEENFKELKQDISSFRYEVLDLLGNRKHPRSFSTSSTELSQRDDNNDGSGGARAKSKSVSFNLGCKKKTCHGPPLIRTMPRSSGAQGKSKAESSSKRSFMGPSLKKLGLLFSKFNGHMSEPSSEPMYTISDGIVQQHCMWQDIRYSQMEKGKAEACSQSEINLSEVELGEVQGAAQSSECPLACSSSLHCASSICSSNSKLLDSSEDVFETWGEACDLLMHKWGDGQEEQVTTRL
Kind of assay: Inhibition of TRPC5 (unknown origin) transfected in HEK293/TREx cells assessed as blocking of inward/outward currents after 20 to 48 hrs in presence of LaCl3 by patch clamp assay. It counts as cell-based. In general terms: The patch-clamp technique gives a direct electrical read-out from membranes.

For assay [2], the target named is T1, Short transient receptor potential channel 5. Kind of assay: Inhibition of TRPC5 (unknown origin) transfected in HEK293/TREx cells assessed as reduction of rise in intracellular Ca2+ concentration after 60 to 80 mins by Fluo4 cell-based fluorescence assay.

In the case of `Cn1c(=O)n(CCCO)c(=O)c2c(Cc3ccccc3)c(-c3cccc(OC(F)(F)F)c3)ccc21`, the concentration for half-maximal inhibition (IC50) in assay [1] turned out to be 5.3 nM.

Consider `COc1ccc2c(c1Cc1ccc(F)cc1)c(=O)n(CCCO)c(=O)n2C`, for which the IC50 in assay [2] was above 100 nM; in assay [1], 8.37 nM.

Regarding `CC(C)Oc1ccc2c(c1Cc1ccc(F)cc1)c(=O)n(CCCO)c(=O)n2C`, the results for the IC50 in assay [2] and in assay [1] were 2.64 nM and 9 nM, respectively.

As for `COc1ccc2c(c1Cc1ccccc1)c(=O)n(CCCO)c(=O)n2C`, in assay [1], the half-inhibitory concentration (IC50) was found to be 23.3 nM.

As to `Cn1c(=O)n(CCCO)c(=O)c2c(Cc3ccccc3)c(Oc3cccc(OC(F)(F)F)c3)ccc21`, the IC50 was 2.69 nM in assay [2] and below 1 nM in assay [1].

On to `CCCCOc1ccc2c(c1Cc1ccc(F)cc1)c(=O)n(CCCO)c(=O)n2C`, for which the half-inhibitory concentration (IC50) in assay [2] and in assay [1] was below 1 nM throughout.

Values taken from ChEMBL document CHEMBL4425118, “Potential Treatment for Neuropsychiatry Disorders with TRPC5 Modulators” (ACS Med Chem Lett, 2016).
